Experiments:
TGF-β1 = target: T1, TGF-β1 (Mus musculus, UniProt P04202); test: In vivo activity of recombinant adenovirus for mouse IL-12: IFN-γ and NO levels in serum; parameters: species or system BALB/c mice
T1 construct: an in vivo system wherein TGF-β1 acts as supposed antagonist of the cytokines induced in this model; from tissue; host or cells: living BALB/c mice (Harlan), endogenous TGF-β1; read-out in serum
From the text: This example studies the effect of peptide p144 in an in vivo system wherein TGF-β1 acts as supposed antagonist of the cytokines induced in this model. The production of mouse IL-12 by the expression of a transgen included in the recombinant adenovirus, induces an inflammatory state through the induction of a cascade of factors, including IFN-γ and nitric oxide. TGF-β1 has been described as an inhibitor of the production and biological action of IL-12, IFN-γ and NO (Pardoux C. et al., 1999; Schini V. B. et al., 1992). […]
Blood samples were extracted from both groups on days 6 and 9 after immunization for the subsequent quantification of IFN-γ and NO levels in serum.
The quantity of IFN-γ was measured by a commercial ELISA (Mouse IFN-γ Duoset ELISA Development System, Genzyme, Cambridge and OPTEIA Mouse IFN-γ Ser, Pharmingen, San Diego, USA) in accordance with the manufacturer's instructions. The results were expressed as pg/ml of IFN-γ and using a standard curve of known quantities of IFN-γ. […]
NO2* emission is in the red and infrared region of the light spectrum and is detected by a red-sensitive photomultiplier tube. This signal is quantified and the data obtained are collected and processed by a computer.

[1] = tested on: dendritic cells derived from splenocytes; test: Surface markers of splenocyte-derived dendritic cells by flow cytometry; format: cell-based, C57 mouse; details: incubation 72 hours; p144 50 μg/ml or anti (TGF-β) antibody 20 μg/ml; medium with GM-CSF+TGF-β1
Procedure: After sacrificing an 8-week old male C57 mouse, its spleen was extracted in sterile conditions and it was homogenised on a plate with clean medium to produce a cell suspension. The cells were centrifuged for 5 minutes at 1000 rpm and the cell sediment obtained was resuspended with 1 ml/spleen of ACK lysis solution (0.15M NH4Cl, 1 mM KHCO3, […] sodium salt-EDTA solution, pH 7.2-7.4) for 1 minute at 37° C. Next, the cells were centrifuged and washed with 10 ml of cold R10 medium (RPMI-1640, 10% FBS, Glutamine, 2×10^−5 M 2-Mercaptoethanol) to centrifuge and wash once more. Finally, the cells were resuspended in 50 ml of R10 medium. 6-well plates were prepared (Costar #3471) treating them with 1 ml per well of R10 medium to differentiate splenocytes from dendritic cells [R10+10 ng/ml of mouse GM-CSF (Peprotec, EC LTD, London, UK)+1 ng/ml of TGF-β1 (RD Systems, Minneapolis, USA)], for 15 minutes at room temperature. Next, 2 ml of the cell suspension were added to each well and they were incubated at 37° C. and 5% CO2. During the first weeks, the medium was changed twice, by the elimination of 1 ml of supernatant and the addition of 1 ml of fresh medium (R10+GM-CSF+TGF-β1) for dendritic cells. After these two weeks, the medium was separated. 1 ml per well of dissociation medium in enzyme-free BPS (GIBCO BRL) was added to the plates, and the medium was incubated at 37° C., then it was removed and 2 ml of tepid medium (R10+GM-CSF+TGF-β1) was added. Next, the cells were lifted with slow pipetting and the lifted cells were centrifuged at 1000 rpm and they were resuspended in fresh medium (R10+GM-CSF+TGF-β1). The cells thus obtained can be reamplified by seeding on a plate, repeating the initial process. […]

T1 sequence (P04202 279-390 limits assumed): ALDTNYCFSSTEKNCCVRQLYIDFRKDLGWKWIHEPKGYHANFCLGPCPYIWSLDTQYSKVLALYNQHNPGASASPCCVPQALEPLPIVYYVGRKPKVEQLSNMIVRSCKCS

## p144: peptide inhibiting TGF-β1 whose amino acid sequence corresponds to SEQ ID NO: 1 (TSLDASIIWAMMQN; Synthetic Construct from human TGB-Beta1 type III receptor.Domain730-743)
TGF-β1; RAd IL-12 1×10^8 pfu i.p. plus p144 daily 100 μg for 5 days, versus RAd IL-12 alone
  serum levels of IFN-γ: increases
TGF-β1; day 6, RAd IL-12 1×10^8 pfu i.p. plus p144, versus RAd IL-12 alone
  NO serum levels: greater level
[1]
  CD11c expression (fluorescence level): negative effect
  CD80 expression (fluorescence level): negative effect
  MHC I expression (fluorescence level): negative effect

Reference: US20090263410A1, “USE OF TGF-B1 INHIBITOR PEPTIDES IN THE PREPARATION OF AN IMMUNE RESPONSE MODULATING AGENT” (Proyecto De Biomedicina Cima, S.L., priority 2005, published 2009)
